Data: patent US4218471A, “Process for the treatment of humans suffering from undesired urotoxic side effects caused by cytostatically active alkylating agents” (Asta-Werke Aktiengesellschaft Chemische Fabrik, priority 1978, dated 1980)
Counter-ions that a name gives are not always drawn.

Legend:
[1] = test system: undesired urotoxic side effects caused by cytostatically active alkylating agents; details: background, cited from earlier work; for effect of introducing solutions into the urinary bladder by catheter: instillation, in particular cytostatics at very high dosages; for protective activity against cytostatically active alkylating agents: cysteine compared with salts of mercapto alkane sulfonic acids, cystine = corresponding disulfide
[2] = test system: kidneys, urinary tracts and urinary bladder; test: urotoxic side effects in cancer patients treated with ifosfamide (hematuria, albuminuria, damage to kidney and urinary bladder); type: in vivo, human; details: for hematuria under ifosfamide therapy without thiol/disulfide protection: 5 times per day, 5 days
Protocol: In accordance with the known practice of therapy a patient and suffering from a theratoid carcinoma of the testicle, at first is subjected to irradiation and thereafter is treated with ifosfamide [i.e. 2-(N-2-chloroethyl-amino)-3-(2-chloroethyl)-2-oxo-1,3,2-oxazaphosphorinane] at 5 times per day, each time with 60 mg./kg. intravenously and at 5 subsequent days. The patient is simultaneously hydrated by administration of 4 liters of water spread over the day and is alkalinized by administration of hexapotassium hexasodium pentacitrate hydrate complex. […] This necessitated immediate rupture of the therapy. After a recovery period of 14 days, the therapy is repeated. However, 60 mg/kg. of the disodium salt of 2,2'-dithiodi-(ethane sulfonic acid) is administered intravenously and simultaneously with each dose of 60 mg/kg. of ifosfamide. The patient is controlled daily for micro- and […] and for albuminuria.
In another patient suffering from the same tumor, the therapy at first is started with the oral administration of 60 mg./kg. of the disodium salt of 2.2'-dithiodi-(ethane sulfonic acid). Two hours thereafter, 60 mg./kg. of ifosfamide are administered intravenously. The same treatment, i.e. the combination of an oral preadministration of the disodium salt of 2,2'-dithiodi-(ethane sulfonic acid) and a subsequent intravenous administration of 60 mg./kg. of ifosfamide is repeated at 5 subsequent days. […] In both the above treatments a moderate hydration (2 liters per day) has been carried out. The treatment rendered superfluous alkalinization as well as the most burdensome instillation of mercapto group containing compounds into the bladder of the patient by means of a catheter.
According to the general experience with such patients, there occurs very readily […] despite application of all known prophylactic treatments such as hydration, alkalinization or instillation of mercapto group containing compounds into the urinary bladder.
(§1) In accordance with the known practice of therapy, a patient and suffering from a cancer of the ovary, at first is subjected to irradiation and thereafter is treated with ifosfamide [i.e. 2-(N-2-chloroethyl-amino)-3-(2-chloroethyl)-2-oxo-1,3,2-oxazaphosphorinane] at 5 times per day, each time with 60 mg./kg. intravenously and at 5 subsequent days. […] After a recovery period of 14 days the therapy is repeated. However, 35 mg./kg. of the sodium salt of 2-mercapto ethane sulfonic acid is administered intravenously and simultaneously with each dose of 60 mg./kg. of ifosfamide, 60, 120 and, respectively, 180 minutes after this intravenous injection 45 mg. of the disodium salt of 2,2'-dithiodi-(ethanesulfonic acid) each time are administered to the patient. The patient is controlled daily for micro- and macrohematuria and for albuminuria. […] The examination of the urine upon cytotoxic activity at varying times after administration of ifosfamide also was negative.
The same protective treatment was effected with the same favourable results in patients suffering from other cancer deceases such as parvicellular bronchial carcinoma or pancreatic carcinoma.

[3] = examination of the urine upon cytotoxic activity / cytostatically active metabolites after administration of ifosfamide; type: in vivo, human; details: Example 4: same combination with sodium salt of 2-mercapto ethane sulfonic acid
Protocol: as §1

In the case of CC(=O)N[C@@H](CS)C(=O)O [N-acetylcysteine], the “clinical effectiveness of the instillation prophylaxis” value ([1]; instillation into urinary bladder with cyclophosphamide and ifosfamide at very high dosages) is listed as “by no means was satisfactory” and the “effect of introducing solutions into the urinary bladder by catheter” value [1] is listed as “very limited”.
For N[C@@H](CS)C(=O)O [cysteine], the “protective activity against cytostatically active alkylating agents” value [1] is given as “limited but distinct protective activity” and the “effect of introducing solutions into the urinary bladder by catheter” value [1] is given as “very limited”.
In the case of N[C@@H](CSSC[C@H](N)C(=O)O)C(=O)O [cystine], the “protective activity against cytostatically active alkylating agents” value [1] is given as “does not have any such protective activity”.
In the case of O=S(=O)(O)CCSSCCS(=O)(=O)O [disodium salt of 2,2'-dithiodi-(ethanesulfonic acid)], the “erythrocytes, albumina or granular cylindrical cells in the urine” value ([2]; Example 1: 60 mg/kg i.v. simultaneously with each dose of 60 mg/kg ifosfamide, same patient after 14 days recovery) is reported as “At no time during the treatment erythrocytes, albumina or granular cylindrical cells were found in the urine of the patient”, the “damage to kidney or urinary bladder, hematuria, albumina or granular cylindrical cells in the urine” value ([2]; Example 2: 60 mg/kg oral, two hours before ifosfamide 60 mg/kg i.v., 5 subsequent days, moderate hydration 2 liters per day) is reported as “no indication of any damage to the kidney or the urinary bladder or of hematuria or of albumina or granular cylindrical cells in the urine of the patient at any time during the treatment” and the “damage to the kidneys and the urinary bladder” value ([2]; Example 3: 60 mg/kg i.v. simultaneously with ifosfamide 60 mg/kg i.v. single dose over 5 days, patient sensibilized by regional radiotherapy) is reported as “there did not occur any damage to the kidneys and the urinary bladder”. The hematuria or albuminuria ([2]; Example 4: 35 mg/kg sodium salt of 2-mercapto ethane sulfonic acid i.v. simultaneously with ifosfamide 60 mg/kg, then 45 mg disodium salt of 2,2'-dithiodi-(ethanesulfonic acid) at 60, 120 and 180 minutes) was “no indication of hematuria or albuminuria”, the “cytostatically active metabolites in the urine” value ([3]; after ifosfamide) was “No cytostatically active metabolites were found in the urine” and the “cytotoxic activity of the urine” value ([3]; varying times after ifosfamide) was “negative”.
In the case of O=P1(NCCCl)OCCCN1CCCl (stereo not shown) [ifosfamide, 2-(N-2-chloroethyl-amino)-3-(2-chloroethyl)-2-oxo-1,3,2-oxazaphosphorinane], the “hematuria under ifosfamide therapy without thiol/disulfide protection” value ([2]; Example 1: ifosfamide 60 mg/kg i.v., with hydration 4 liters and alkalinization, testicular carcinoma patient) is reported as “macrohematuria already on the fourth day” and the “hematuria under ifosfamide therapy without thiol/disulfide protection” value ([2]; Example 4: ifosfamide 60 mg/kg i.v., with hydration and alkalinization, patient with cancer of the ovary) is reported as “microhematuria”.
